# Source: article PMC9500072, “Topical application of an irreversible small molecule inhibitor of lysyl oxidases ameliorates skin scarring and fibrosis” (Nature Communications, 2022)
# How the values were obtained:
# Glutamate, NMDA, Glycine = assay: Eurofins panel 232910; type: binding, rat; conditions: 10 µM
# [1] = target: Leukotriene, Cysteinyl CysLT1 (Homo sapiens, UniProt Q9Y271); assay: Eurofins panel 250460; type: binding
# Endothelin ETB = Endothelin ETB (Homo sapiens, UniProt P24530); assay: Eurofins panel 224110; type: binding
# Endothelin ETB, sequence (P24530 27-442): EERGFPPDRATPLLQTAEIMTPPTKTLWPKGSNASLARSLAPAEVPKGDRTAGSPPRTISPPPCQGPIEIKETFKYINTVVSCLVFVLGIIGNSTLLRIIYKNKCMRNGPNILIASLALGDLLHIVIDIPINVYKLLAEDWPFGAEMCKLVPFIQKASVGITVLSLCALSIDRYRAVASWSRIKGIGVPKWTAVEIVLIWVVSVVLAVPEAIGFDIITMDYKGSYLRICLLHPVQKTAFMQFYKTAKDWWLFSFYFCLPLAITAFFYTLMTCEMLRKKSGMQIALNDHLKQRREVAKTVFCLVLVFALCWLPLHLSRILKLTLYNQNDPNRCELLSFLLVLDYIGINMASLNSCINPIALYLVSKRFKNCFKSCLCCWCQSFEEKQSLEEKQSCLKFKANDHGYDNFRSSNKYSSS
# LOX = assay: Substrate (putrescine) competition; type: biochemical; parameters: Fig. 2D activity: scale not given here
# Description: PXS-4787 competes with a model substrate (putrescine) for the LOX binding site (Fig. 2d). The allylamine of PXS-4787 interacts with the co-factor of the enzyme and elicits mechanism-based inhibition (Fig. 2e). Through careful optimization, and in contrast to BAPN, PXS-4787 selectivity targets lysyl oxidases and is neither an inhibitor of, nor a substrate for, related oxidases (Fig. 2f, g and Supplementary Table S1). Furthermore, PXS-4787 was clean when profiled in a broad panel of macromolecular targets using enzyme and radioligand binding assays (LeadProfilingScreen, Eurofins CEREP Panlabs, 68 assays, test concentration 10 µM; Supplementary Data S1).
# Data are expressed as mean ± SEM. Subsequent statistical analysis was performed with unpaired two-sided Student’s t tests. *p < 0.05, **p < 0.01, ***p < 0.001and ****p < 0.0001. Source data are provided as a Source Data file.
# The measurement of the enzymatic activity of all lysyl oxidase family members was based on the detection of hydrogen peroxide with an Amplex-Red oxidation assay, as previously described; miniaturized in 384 well formats, with the appropriate combination of substrate and assay buffer for each individual enzyme. After a 30 min pre-incubation of the enzyme at 37 °C with the test compound (or with different incubation times for the time-dependency assay), one volume of reaction mixture containing 120 μM Amplex Red (AR) (Life Technologies), 1.5 U/mL horseradish peroxidase (HRP) (Sigma-Aldrich) and the specific substrate was added to each sample. The relative fluorescence units (RFU) were then measured every 2.5 min for 30 min at 37 °C, excitation 565 nm and emission 590, on a BMG Clariostar Microplate Reader. All the substrates were used at concentrations corresponding to their Km towards the corresponding enzyme, or with a range of different concentrations for the substrate competition experiments.
# fibroblasts = assay: RNASeq transcriptome analysis, fibroblasts; type: cell-based, human; conditions: 24 hrs of treatment
# Imidazoline I2, Central = assay: Eurofins panel 241000; type: binding, rat; conditions: 10 µM
# Dopamine D4.2 = Dopamine D4.2 (Homo sapiens, UniProt P21917, DEL265-296); assay: Eurofins panel 219900; type: binding
# Dopamine D4.2, sequence (P21917 with tags, fused parts or gaps DEL265-296): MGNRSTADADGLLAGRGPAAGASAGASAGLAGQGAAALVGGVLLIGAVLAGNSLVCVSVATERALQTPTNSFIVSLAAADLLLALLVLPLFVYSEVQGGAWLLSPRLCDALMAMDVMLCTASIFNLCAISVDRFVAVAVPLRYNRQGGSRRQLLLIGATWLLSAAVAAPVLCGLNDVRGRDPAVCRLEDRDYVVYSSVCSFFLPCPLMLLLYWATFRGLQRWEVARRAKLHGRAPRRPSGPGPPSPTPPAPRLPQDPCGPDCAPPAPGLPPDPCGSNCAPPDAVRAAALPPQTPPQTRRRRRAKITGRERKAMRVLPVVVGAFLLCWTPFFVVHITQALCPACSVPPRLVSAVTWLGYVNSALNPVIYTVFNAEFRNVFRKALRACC
# Adrenergic α1D = Adrenergic α1D (Homo sapiens, UniProt P25100); assay: Eurofins panel 203400; type: binding
# Adrenergic α1D, sequence (P25100 whole entry): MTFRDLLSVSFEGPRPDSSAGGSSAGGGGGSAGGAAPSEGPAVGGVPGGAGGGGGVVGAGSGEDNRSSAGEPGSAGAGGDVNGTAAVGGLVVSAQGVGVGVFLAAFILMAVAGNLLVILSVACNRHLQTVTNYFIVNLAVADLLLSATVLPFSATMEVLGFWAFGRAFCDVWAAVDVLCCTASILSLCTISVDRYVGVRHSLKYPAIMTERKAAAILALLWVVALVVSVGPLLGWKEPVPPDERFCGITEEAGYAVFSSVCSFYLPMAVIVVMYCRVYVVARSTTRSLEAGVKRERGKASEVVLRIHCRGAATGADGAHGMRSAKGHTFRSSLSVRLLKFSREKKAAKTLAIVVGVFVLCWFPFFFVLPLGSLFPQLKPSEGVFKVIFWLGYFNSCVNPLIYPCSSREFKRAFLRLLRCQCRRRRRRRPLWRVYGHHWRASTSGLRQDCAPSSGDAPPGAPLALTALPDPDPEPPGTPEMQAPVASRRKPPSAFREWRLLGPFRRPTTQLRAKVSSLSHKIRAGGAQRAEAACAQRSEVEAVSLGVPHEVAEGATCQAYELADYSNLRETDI
# HepG2 cells = assay: Phospholipidosis in HepG2 cells; type: cell-based; conditions: 0–100 µM
# Estrogen ERα = Estrogen ERα (Homo sapiens, UniProt P03372); assay: Eurofins panel 226010; type: binding
# Estrogen ERα, sequence (P03372 whole entry): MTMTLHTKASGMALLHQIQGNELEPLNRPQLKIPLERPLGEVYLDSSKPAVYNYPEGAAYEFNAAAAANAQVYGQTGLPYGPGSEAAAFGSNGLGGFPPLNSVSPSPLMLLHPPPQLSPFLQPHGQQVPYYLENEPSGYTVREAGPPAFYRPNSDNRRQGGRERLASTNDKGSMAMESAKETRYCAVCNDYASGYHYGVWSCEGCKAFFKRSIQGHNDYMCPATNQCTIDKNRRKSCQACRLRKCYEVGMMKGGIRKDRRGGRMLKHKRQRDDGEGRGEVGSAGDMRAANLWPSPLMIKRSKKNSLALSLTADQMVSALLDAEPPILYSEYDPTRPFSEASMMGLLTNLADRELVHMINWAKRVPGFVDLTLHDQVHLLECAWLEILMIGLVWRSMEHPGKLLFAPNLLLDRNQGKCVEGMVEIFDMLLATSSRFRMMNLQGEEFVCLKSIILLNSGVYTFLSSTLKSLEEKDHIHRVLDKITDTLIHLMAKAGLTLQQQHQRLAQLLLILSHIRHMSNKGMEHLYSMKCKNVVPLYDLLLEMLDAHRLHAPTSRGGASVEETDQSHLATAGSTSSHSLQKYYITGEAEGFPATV
# Cannabinoid CB2 = Cannabinoid CB2 (Homo sapiens, UniProt P34972); assay: Eurofins panel 217100; type: binding
# Cannabinoid CB2, sequence (P34972 whole entry): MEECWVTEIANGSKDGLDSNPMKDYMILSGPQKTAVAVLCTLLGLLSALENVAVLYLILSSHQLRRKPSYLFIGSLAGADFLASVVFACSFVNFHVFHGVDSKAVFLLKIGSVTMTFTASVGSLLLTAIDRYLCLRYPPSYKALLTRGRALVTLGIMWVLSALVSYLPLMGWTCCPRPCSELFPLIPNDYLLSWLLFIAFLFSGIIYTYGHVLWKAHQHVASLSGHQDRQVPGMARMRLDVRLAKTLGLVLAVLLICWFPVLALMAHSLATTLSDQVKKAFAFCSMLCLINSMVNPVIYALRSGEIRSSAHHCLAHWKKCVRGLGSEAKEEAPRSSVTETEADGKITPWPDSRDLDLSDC
# [2] = test system: MDCKII cells transfected with P-glycoprotein (Pgp); assay: MDCKII-Pgp permeability; type: in vitro ADME; conditions: unaffected by the presence of the Pgp-inhibitor
# Protocol: The penetration of PXS-6302 across a monolayer of cells was tested using Caco-2 or MDCKII cells transfected with P-glycoprotein (Pgp).
# Monoamine Oxidase MAO-A = Monoamine Oxidase MAO-A (Homo sapiens, UniProt P21397); assay: Eurofins panel 140010; type: biochemical
# Monoamine Oxidase MAO-A, sequence (P21397 whole entry): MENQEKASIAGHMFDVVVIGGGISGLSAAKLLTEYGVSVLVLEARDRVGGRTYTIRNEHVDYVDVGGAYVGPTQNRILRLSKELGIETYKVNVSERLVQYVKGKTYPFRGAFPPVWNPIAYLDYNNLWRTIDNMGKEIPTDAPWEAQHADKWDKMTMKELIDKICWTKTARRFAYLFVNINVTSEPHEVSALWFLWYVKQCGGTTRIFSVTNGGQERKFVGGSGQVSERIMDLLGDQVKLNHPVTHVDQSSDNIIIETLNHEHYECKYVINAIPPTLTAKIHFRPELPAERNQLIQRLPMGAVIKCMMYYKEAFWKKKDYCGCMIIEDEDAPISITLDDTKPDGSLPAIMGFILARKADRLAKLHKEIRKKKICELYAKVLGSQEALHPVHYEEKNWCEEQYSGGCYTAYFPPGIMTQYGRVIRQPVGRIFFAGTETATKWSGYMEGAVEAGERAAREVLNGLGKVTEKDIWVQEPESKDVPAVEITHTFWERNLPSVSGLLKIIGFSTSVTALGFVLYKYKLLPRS
# Phosphodiesterase PDE3A = Phosphodiesterase PDE3A (Homo sapiens, UniProt Q14432); assay: Eurofins panel 152300; type: biochemical
# Phosphodiesterase PDE3A, sequence (Q14432 whole entry): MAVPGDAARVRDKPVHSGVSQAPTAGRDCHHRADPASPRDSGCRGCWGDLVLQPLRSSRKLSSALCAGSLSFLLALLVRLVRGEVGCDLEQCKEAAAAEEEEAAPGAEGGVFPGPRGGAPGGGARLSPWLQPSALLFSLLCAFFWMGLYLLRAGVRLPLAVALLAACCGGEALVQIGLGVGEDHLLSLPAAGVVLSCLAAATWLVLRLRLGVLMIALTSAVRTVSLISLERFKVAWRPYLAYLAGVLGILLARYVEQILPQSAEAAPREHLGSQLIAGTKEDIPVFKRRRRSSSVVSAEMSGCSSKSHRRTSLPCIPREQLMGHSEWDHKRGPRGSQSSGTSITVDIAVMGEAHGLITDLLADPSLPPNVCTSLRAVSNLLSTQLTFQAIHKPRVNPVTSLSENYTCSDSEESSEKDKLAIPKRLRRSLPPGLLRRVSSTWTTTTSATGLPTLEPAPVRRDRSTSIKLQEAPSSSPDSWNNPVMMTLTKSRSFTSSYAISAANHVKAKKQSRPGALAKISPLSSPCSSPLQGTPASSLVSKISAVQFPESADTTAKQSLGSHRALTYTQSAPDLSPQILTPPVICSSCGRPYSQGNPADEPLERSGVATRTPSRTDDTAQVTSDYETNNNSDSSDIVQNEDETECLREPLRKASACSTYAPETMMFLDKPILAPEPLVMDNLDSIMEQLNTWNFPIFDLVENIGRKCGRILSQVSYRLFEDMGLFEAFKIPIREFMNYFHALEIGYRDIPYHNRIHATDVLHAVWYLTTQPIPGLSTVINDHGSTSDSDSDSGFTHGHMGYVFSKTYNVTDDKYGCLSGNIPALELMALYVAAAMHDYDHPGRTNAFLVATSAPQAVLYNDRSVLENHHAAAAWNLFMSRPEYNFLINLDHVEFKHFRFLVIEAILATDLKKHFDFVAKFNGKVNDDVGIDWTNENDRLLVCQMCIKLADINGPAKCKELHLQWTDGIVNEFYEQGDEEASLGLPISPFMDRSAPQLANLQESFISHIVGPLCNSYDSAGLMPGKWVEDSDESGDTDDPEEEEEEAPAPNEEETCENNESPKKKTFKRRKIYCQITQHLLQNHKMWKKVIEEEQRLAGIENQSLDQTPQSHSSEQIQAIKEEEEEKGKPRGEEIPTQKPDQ
# [3] = test system: deep-dermal contact burn scar; assay: Porcine burn injury model with tensile strength testing; type: in vivo, pig
# Leukotriene, Cysteinyl CysLT1, sequence (Q9Y271 whole entry): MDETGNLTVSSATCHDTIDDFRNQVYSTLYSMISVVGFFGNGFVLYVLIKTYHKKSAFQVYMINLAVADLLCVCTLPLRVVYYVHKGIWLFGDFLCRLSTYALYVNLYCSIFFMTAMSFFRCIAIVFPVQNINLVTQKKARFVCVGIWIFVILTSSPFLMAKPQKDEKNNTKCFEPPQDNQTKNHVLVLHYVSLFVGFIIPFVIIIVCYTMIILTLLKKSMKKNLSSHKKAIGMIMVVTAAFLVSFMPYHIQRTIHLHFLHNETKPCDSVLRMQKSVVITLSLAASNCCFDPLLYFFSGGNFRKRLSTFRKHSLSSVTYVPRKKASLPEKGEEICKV
structure (smiles),measurement,setting,value
NC/C=C(\F)CS(=O)(=O)c1ccccc1 [PXS-4787],% Inh.,"Glutamate, NMDA, Glycine",5%
same,inhibition at 10 µM,[1],-3%
same,inhibition at 10 µM,Endothelin ETB,3%
same,competition with model substrate putrescine for the LOX binding site,LOX,competes
same,Fig. 2D activity,"LOX; 5.65e-10, putrescine 1.1 mM",89.58
same,Fig. 2D activity,"LOX; 5.65e-10, putrescine 3.3 mM",93.22
same,Fig. 2D activity,"LOX; 5.65e-10, putrescine 10 mM",98.29
same,Fig. 2D activity,"LOX; 5.65e-10, putrescine 30 mM",96.57
same,Fig. 2D activity,"LOX; 5.65e-10, putrescine 90 mM",93.38
same,Fig. 2D activity,"LOX; 1.69e-9, putrescine 1.1 mM",84.4
same,Fig. 2D activity,"LOX; 1.69e-9, putrescine 3.3 mM",94.23
same,Fig. 2D activity,"LOX; 1.69e-9, putrescine 10 mM",94.63
same,Fig. 2D activity,"LOX; 1.69e-9, putrescine 30 mM",93.67
same,Fig. 2D activity,"LOX; 1.69e-9, putrescine 90 mM",92.69
same,Fig. 2D activity,"LOX; 5.08e-9, putrescine 1.1 mM",89.54
same,Fig. 2D activity,"LOX; 5.08e-9, putrescine 3.3 mM",93.84
same,Fig. 2D activity,"LOX; 5.08e-9, putrescine 10 mM",97.41
same,Fig. 2D activity,"LOX; 5.08e-9, putrescine 30 mM",96.12
same,Fig. 2D activity,"LOX; 5.08e-9, putrescine 90 mM",91.41
same,Fig. 2D activity,"LOX; 1.52e-8, putrescine 1.1 mM",91.17
same,Fig. 2D activity,"LOX; 1.52e-8, putrescine 3.3 mM",95.49
same,Fig. 2D activity,"LOX; 1.52e-8, putrescine 10 mM",93.57
same,Fig. 2D activity,"LOX; 1.52e-8, putrescine 30 mM",97.83
same,Fig. 2D activity,"LOX; 1.52e-8, putrescine 90 mM",92.34
same,Fig. 2D activity,"LOX; 4.57e-8, putrescine 1.1 mM",81.95
same,Fig. 2D activity,"LOX; 4.57e-8, putrescine 3.3 mM",93.97
same,Fig. 2D activity,"LOX; 4.57e-8, putrescine 10 mM",95.69
same,Fig. 2D activity,"LOX; 4.57e-8, putrescine 30 mM",96.71
same,Fig. 2D activity,"LOX; 4.57e-8, putrescine 90 mM",93.31
same,Fig. 2D activity,"LOX; 1.37e-7, putrescine 1.1 mM",73.72
same,Fig. 2D activity,"LOX; 1.37e-7, putrescine 3.3 mM",89.33
same,Fig. 2D activity,"LOX; 1.37e-7, putrescine 10 mM",93.77
same,Fig. 2D activity,"LOX; 1.37e-7, putrescine 30 mM",94.81
same,Fig. 2D activity,"LOX; 1.37e-7, putrescine 90 mM",93.26
same,Fig. 2D activity,"LOX; 4.12e-7, putrescine 1.1 mM",60.93
same,Fig. 2D activity,"LOX; 4.12e-7, putrescine 3.3 mM",75.9
same,Fig. 2D activity,"LOX; 4.12e-7, putrescine 10 mM",89.23
same,Fig. 2D activity,"LOX; 4.12e-7, putrescine 30 mM",89.28
same,Fig. 2D activity,"LOX; 4.12e-7, putrescine 90 mM",90.74
same,Fig. 2D activity,"LOX; 1.23e-6, putrescine 1.1 mM",32.69
same,Fig. 2D activity,"LOX; 1.23e-6, putrescine 3.3 mM",47.9
same,Fig. 2D activity,"LOX; 1.23e-6, putrescine 10 mM",67.1
same,Fig. 2D activity,"LOX; 1.23e-6, putrescine 30 mM",81.21
same,Fig. 2D activity,"LOX; 1.23e-6, putrescine 90 mM",86.37
same,Fig. 2D activity,"LOX; 3.7e-6, putrescine 1.1 mM",11.17
same,Fig. 2D activity,"LOX; 3.7e-6, putrescine 3.3 mM",19.92
same,Fig. 2D activity,"LOX; 3.7e-6, putrescine 10 mM",38.7
same,Fig. 2D activity,"LOX; 3.7e-6, putrescine 30 mM",60.57
same,Fig. 2D activity,"LOX; 3.7e-6, putrescine 90 mM",76.61
same,Fig. 2D activity,"LOX; 1.11e-5, putrescine 1.1 mM",3.35
same,Fig. 2D activity,"LOX; 1.11e-5, putrescine 3.3 mM",6.43
same,Fig. 2D activity,"LOX; 1.11e-5, putrescine 10 mM",14.18
same,Fig. 2D activity,"LOX; 1.11e-5, putrescine 30 mM",32.4
same,Fig. 2D activity,"LOX; 1.11e-5, putrescine 90 mM",57.08
same,Fig. 2D activity,"LOX; 3.33e-5, putrescine 1.1 mM",-0.5
same,Fig. 2D activity,"LOX; 3.33e-5, putrescine 3.3 mM",1.53
same,Fig. 2D activity,"LOX; 3.33e-5, putrescine 10 mM",3.65
same,Fig. 2D activity,"LOX; 3.33e-5, putrescine 30 mM",9.04
same,Fig. 2D activity,"LOX; 3.33e-5, putrescine 90 mM",24.08
same,Fig. 2D activity,"LOX; 0.0001, putrescine 1.1 mM",-0.9
same,Fig. 2D activity,"LOX; 0.0001, putrescine 3.3 mM",-0.36
same,Fig. 2D activity,"LOX; 0.0001, putrescine 10 mM",0.174
same,Fig. 2D activity,"LOX; 0.0001, putrescine 30 mM",1.46
same,Fig. 2D activity,"LOX; 0.0001, putrescine 90 mM",4.82
same,Log2 fold change ACTA2-AS1,fibroblasts,-3.268
same,Log2 fold change GAL,fibroblasts,2.787
same,Log2 fold change ICOSLG,fibroblasts,1.738
same,Log2 fold change TMEM88,fibroblasts,2.374
same,% Inh.,"Imidazoline I2, Central",-10%
same,inhibition at 10 µM,Dopamine D4.2,1%
same,inhibition at 10 µM,Adrenergic α1D,-1%
same,phospholipidosis score,HepG2 cells,0
same,inhibition at 10 µM,Estrogen ERα,3%
NC/C=C(\F)C(F)(F)S(=O)(=O)c1ccccc1 [PXS-6302],inhibition at 30 µM,Cannabinoid CB2,-4%
same,MDCKII-Pgp permeability (class in words),[2],high permeability
same,inhibition at 30 µM,Monoamine Oxidase MAO-A,10%
same,inhibition at 30 µM,Phosphodiesterase PDE3A,-4%
same,"tensile strength, treated vs control scars",[3]; 3% cream,no significant differences
same,scar photo score by blinded plastic surgeons vs placebo,[3]; 3% cream once daily from re-epithelialisation to 2 months post-injury,significantly better
same,treated scars with lower Young's modulus than matched vehicle treated scar,"[3]; 3% cream, p = 0.15",5/6
